From PubChem BioAssay AID1963432 (Molecular Pharmacology Branch, DTP, NCI, 2024)
Each block holds one compound with its values, some of them ahead of it.

Test system: SYO-1 complex spheroid growth, percent test/control
Assay: Anticancer human tumor SYO-1 cell line growth inhibition [Asc];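 also: compound exposure lasted 7 days after spheroids grew 3 days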;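 as to viability, T/C: 100% = DMSO vehicle control viability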
Details: for IC50: curve of first compound; for viability, T/C: stronger effect = lower value
Outline: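 Stromal components (HUVEC and hMSC) are co-assembled with the cancer cells into multicellular spheroids. Drugs are then added singly or paired, at concentrations falling by half-log increments from a clinically achievable maximum, capped at 10 microM without known Cmax.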

[1] = second compound 0.00949 µM, first compound 0.0316 µM
[2] = second compound 0.00949 µM, first compound 0.1 µM
[3] = second compound 0.00949 µM, first compound 0.316 µM
[4] = second compound 0.00949 µM, first compound 1 µM
[5] = second compound 0.00949 µM, first compound 3.16 µM
[6] = second compound 0.00949 µM, first compound 10 µM
[7] = second compound 0.03 µM, first compound 0.0316 µM
[8] = second compound 0.03 µM, first compound 0.1 µM
[9] = second compound 0.03 µM, first compound 0.316 µM
[10] = second compound 0.03 µM, first compound 1 µM
[11] = second compound 0.03 µM, first compound 3.16 µM
[12] = second compound 0.03 µM, first compound 10 µM
[13] = second compound 0.0949 µM, first compound 0.0316 µM
[14] = second compound 0.0949 µM, first compound 0.1 µM
[15] = second compound 0.0949 µM, first compound 0.316 µM
[16] = second compound 0.0949 µM, first compound 1 µM
[17] = second compound 0.0949 µM, first compound 3.16 µM
[18] = second compound 0.0949 µM, first compound 10 µM
[19] = second compound 0.3 µM, first compound 0.0316 µM
[20] = second compound 0.3 µM, first compound 0.1 µM
[21] = second compound 0.3 µM, first compound 0.316 µM
[22] = second compound 0.3 µM, first compound 1 µM
[23] = second compound 0.3 µM, first compound 3.16 µM
[24] = second compound 0.3 µM, first compound 10 µM
[25] = second compound 0.949 µM, first compound 0.0316 µM
[26] = second compound 0.949 µM, first compound 0.1 µM
[27] = second compound 0.949 µM, first compound 0.316 µM
[28] = second compound 0.949 µM, first compound 1 µM
[29] = second compound 0.949 µM, first compound 3.16 µM
[30] = second compound 0.949 µM, first compound 10 µM
[31] = second compound 3 µM, first compound 0.0316 µM
[32] = second compound 3 µM, first compound 0.1 µM
[33] = second compound 3 µM, first compound 0.316 µM
[34] = second compound 3 µM, first compound 1 µM
[35] = second compound 3 µM, first compound 3.16 µM
[36] = second compound 3 µM, first compound 10 µM

IC50 (second compound 0.00949 µM): > 10000 nM | IC50 (second compound 0.03 µM): > 10000 nM | IC50 (second compound 0.0949 µM): > 10000 nM | IC50 (second compound 0.3 µM): < 31.6 nM | IC50 (second compound 0.949 µM): < 31.6 nM | IC50 (second compound 3 µM): < 31.6 nM
Structure (SMILES): C#Cc1c(F)ccc2cc(O)cc(-c3ncc4c(N5CC6CCC(C5)N6)nc(OCC56CCCN5CC(F)C6)nc4c3F)c12 (centres undefined) + CCN1C(C(=O)NC23CCC(C(=O)O)(CC2)CC3)C(c2cccc(Cl)c2F)C2(C(=O)Nc3cc(Cl)ccc32)C12CCCCC2
viability, T/C [1]: 113% | viability, T/C [2]: 95.3% | viability, T/C [3]: 101% | viability, T/C [4]: 98.1% | viability, T/C [5]: 113% | viability, T/C [6]: 112% | viability, T/C [7]: 99% | viability, T/C [8]: 90.1% | viability, T/C [9]: 97.2% | viability, T/C [10]: 99.3% | viability, T/C [11]: 105% | viability, T/C [12]: 104% | viability, T/C [13]: 84.8% | viability, T/C [14]: 81.2% | viability, T/C [15]: 88.3% | viability, T/C [16]: 85.8% | viability, T/C [17]: 86.8% | viability, T/C [18]: 79.7% | viability, T/C [19]: 26.7% | viability, T/C [20]: 24.9% | viability, T/C [21]: 21.6% | viability, T/C [22]: 20.5% | viability, T/C [23]: 21.6% | viability, T/C [24]: 13.5% | viability, T/C [25]: 2.32% | viability, T/C [26]: 3.19% | viability, T/C [27]: 3.03% | viability, T/C [28]: 3.66% | viability, T/C [29]: 2.43% | viability, T/C [30]: 0.85% | viability, T/C [31]: 1.29% | viability, T/C [32]: 1.17% | viability, T/C [33]: 1.63% | viability, T/C [34]: 1.09% | viability, T/C [35]: 0.91% | viability, T/C [36]: 0.35%

IC50 (second compound 0.00949 µM): 5020 nM | IC50 (second compound 0.03 µM): 1860 nM | IC50 (second compound 0.0949 µM): 1620 nM | IC50 (second compound 0.3 µM): < 31.6 nM | IC50 (second compound 0.949 µM): < 31.6 nM | IC50 (second compound 3 µM): < 31.6 nM
Structure (SMILES): C=C(F)C(=O)N1CCN(c2nc(OCC3CCCN3C)nc3c2CCN(c2cccc4cccc(Cl)c24)C3)CC1CC#N (centres undefined) + CCN1C(C(=O)NC23CCC(C(=O)O)(CC2)CC3)C(c2cccc(Cl)c2F)C2(C(=O)Nc3cc(Cl)ccc32)C12CCCCC2
viability, T/C [1]: 101% | viability, T/C [2]: 99.9% | viability, T/C [3]: 101% | viability, T/C [4]: 109% | viability, T/C [5]: 83.3% | viability, T/C [6]: 0.4% | viability, T/C [7]: 96.9% | viability, T/C [8]: 95.3% | viability, T/C [9]: 101% | viability, T/C [10]: 111% | viability, T/C [11]: 6.35% | viability, T/C [12]: 0.68% | viability, T/C [13]: 87.1% | viability, T/C [14]: 81% | viability, T/C [15]: 83.8% | viability, T/C [16]: 88.2% | viability, T/C [17]: 1.01% | viability, T/C [18]: 0.26% | viability, T/C [19]: 31.3% | viability, T/C [20]: 27.9% | viability, T/C [21]: 22.7% | viability, T/C [22]: 23.9% | viability, T/C [23]: 1.47% | viability, T/C [24]: 0.37% | viability, T/C [25]: 4.04% | viability, T/C [26]: 3.25% | viability, T/C [27]: 2.38% | viability, T/C [28]: 1.49% | viability, T/C [29]: 0.82% | viability, T/C [30]: 0.26% | viability, T/C [31]: 2.61% | viability, T/C [32]: 1.39% | viability, T/C [33]: 1.16% | viability, T/C [34]: 0.97% | viability, T/C [35]: 0.49% | viability, T/C [36]: 0.4%
